Earlier results in US20210290592A1, “COMPOSITION AND METHOD FOR OPIOID SPARING” (Zelira Therapeutics Operations Pty Ltd., priority 2018, published 2021).

Conditions: treatment group, 5 mg THC, n=105; 74 mg in control group, difference not statistically significant

Q: For `CCCCCc1cc(O)c2c(c1)OC(C)(C)[C@@H]1CCC(C)=C[C@@H]21` [dronabinol], which “Median dose of micro-opioid agonist piritramide in the two days post surgery” value is on record?
A: Its value is 54 mg.
